The record followed here is patent US20220401564A1 (DANA-FARBER CANCER INSTITUTE, INC., priority 2019, published 2022).

The target in this test is T1, HDAC7 (Homo sapiens, UniProt Q8WUI4).
T1 construct: purchased Reaction Biology
T1 sequence (Q8WUI4 1-952): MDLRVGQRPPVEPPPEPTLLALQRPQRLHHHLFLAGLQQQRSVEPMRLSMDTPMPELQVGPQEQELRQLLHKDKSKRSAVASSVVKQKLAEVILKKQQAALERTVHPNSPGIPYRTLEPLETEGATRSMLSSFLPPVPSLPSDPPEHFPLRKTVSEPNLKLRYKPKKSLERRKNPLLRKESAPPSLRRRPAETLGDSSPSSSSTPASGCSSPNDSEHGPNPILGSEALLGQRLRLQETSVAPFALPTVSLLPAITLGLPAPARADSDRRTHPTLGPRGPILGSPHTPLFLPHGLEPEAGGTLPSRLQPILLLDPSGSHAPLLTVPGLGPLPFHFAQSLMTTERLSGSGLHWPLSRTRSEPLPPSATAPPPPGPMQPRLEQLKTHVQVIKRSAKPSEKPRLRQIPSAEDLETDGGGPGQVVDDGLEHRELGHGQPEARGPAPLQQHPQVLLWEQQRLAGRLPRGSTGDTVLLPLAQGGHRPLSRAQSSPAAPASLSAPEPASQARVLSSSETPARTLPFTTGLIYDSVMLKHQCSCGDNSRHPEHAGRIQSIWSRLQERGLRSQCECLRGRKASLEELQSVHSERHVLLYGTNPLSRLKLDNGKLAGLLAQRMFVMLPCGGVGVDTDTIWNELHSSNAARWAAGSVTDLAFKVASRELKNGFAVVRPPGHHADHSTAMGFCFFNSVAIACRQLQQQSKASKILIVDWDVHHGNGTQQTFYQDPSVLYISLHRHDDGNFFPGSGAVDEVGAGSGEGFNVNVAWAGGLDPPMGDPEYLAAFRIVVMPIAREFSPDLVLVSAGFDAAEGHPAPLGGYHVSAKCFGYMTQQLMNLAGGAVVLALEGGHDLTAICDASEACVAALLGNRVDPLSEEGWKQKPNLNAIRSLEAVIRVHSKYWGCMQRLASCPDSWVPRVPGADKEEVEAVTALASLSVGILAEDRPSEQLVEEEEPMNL
Briefly: HDAC enzymatic assay (Reaction Biology), Class 2A substrate. The class given is biochemical. The note with it: 10-dose response curve; read-out: Compound IC50 (M), HDAC7. The method, then: Compounds 2 and 9 were tested in an enzymatic assay from Reaction Biology® against HDAC isoforms.
Base Reaction buffer: 50 mM Tris-HCl, pH8.0, 137 mM NaCl, 2.7 mM KCl, and 1 mM MgCl2. Add fresh: 1 mg/ml BSA, 1% DMSO
Class 2A Substrate (HDAC4, HDAC5, HDAC7, and HDAC9): Boc-Lys(trifluoroacetyl)-AMC
1. Delivered 2X enzyme in wells of reaction plate except in the control wells and added buffer to control wells. 2. Delivered compounds in 100% DMSO into the enzyme mixture by Acoustic technology (Echo550; nanoliter range). Spin down and pre-incubation. 3. Delivered 2X Substrate Mixture (Fluorogenic HDAC Substrate and co-factor if applicable) in all reaction wells to initiate the reaction. Spin and shake. 4. Incubated for 30 min for Class 2A, 1 h for HDAC1, 2, 3, and 6, and 2 h for the rest of HDAC isoforms and SIRTs at 30° C. with seal.
5. Added Developer with Trichostatin A (or Nicotinamide for SIRTs) to stop the reaction and to generate fluorescent color. 6. The fluorescence that was generated was detected with excitation (Ex) at […] and emission (Em) at 460 nM by the EnVision Multilabel Plate Reader (PerkinElmer®, Santa Clara, Calif., USA).
IC50 values were derived from a 10-dose response curve. As shown in Tables 1-2, the addition of a linker and CRBN targeting group altered the isoform selectivity of the SAHA-based degrader compounds.

The term IC50 denotes the concentration that inhibits the measured activity by half. Consider `Cc1ncsc1-c1ccc([C@H](C)NC(=O)[C@@H]2C[C@@H](O)CN2C(=O)[C@@H](NC(=O)CCOCCOCCN(CCc2c[nH]c3ccccc23)Cc2ccc(/C=C/C(=O)NO)cc2)C(C)(C)C)cc1` [Compound 2, (2S,4R)-1-((S)-14-(tert-butyl)-3-(4-((E)-3-(hydroxyamino)-3-oxoprop-1-en-1-yl)benzyl)-1-(1H-indol-3-yl)-12-oxo-6,9-dioxa-3,13-diazapentadecan-15-oyl)-4-hydroxy-N—((S)-1-(4-(4-methylthiazol-5-yl)phenyl)ethyl)pyrrolidine-2-carboxamide], for which the 50% inhibitory concentration (IC50) was determined as 1.71e-05 M.
